≈ marks a conversion by molar mass, not a printed value.
Columns and labels:
Format in all cases: functional
Aspergillus niger [1] = assay: Antifungal activity against Aspergillus niger isolate CM-3636 obtained from respiratory tract infection of patient after 48 hrs by EUCAST broth dilution method; conditions: isolate CM-3636, 48 h
Aspergillus tubingensis [2] = assay: Antifungal activity against Aspergillus tubingensis isolate CM-3654 obtained from blood culture after 48 hrs by EUCAST broth dilution method; conditions: isolate CM-3654, 48 h
Aspergillus tubingensis [3] = assay: Antifungal activity against Aspergillus tubingensis isolate CM-3123 obtained from respiratory tract infection of patient after 48 hrs by EUCAST broth dilution method; conditions: isolate CM-3123, 48 h
Aspergillus foetidus [4] = assay: Antifungal activity against Aspergillus foetidus isolate CM-4002 after 48 hrs by EUCAST broth dilution method; conditions: isolate CM-4002, 48 h
Aspergillus tubingensis [5] = assay: Antifungal activity against Aspergillus tubingensis isolate CM-4001 after 48 hrs by EUCAST broth dilution method; conditions: isolate CM-4001, 48 h
Aspergillus tubingensis [6] = assay: Antifungal activity against Aspergillus tubingensis isolate CM-3125 obtained from respiratory tract infection of patient after 48 hrs by EUCAST broth dilution method; conditions: isolate CM-3125, 48 h
Aspergillus tubingensis [7] = assay: Antifungal activity against Aspergillus tubingensis isolate CM-3810 obtained from respiratory tract infection of patient after 48 hrs by EUCAST broth dilution method; conditions: isolate CM-3810, 48 h
Aspergillus tubingensis [8] = assay: Antifungal activity against Aspergillus tubingensis isolate CM-4688 obtained from respiratory tract infection of patient after 48 hrs by EUCAST broth dilution method; conditions: isolate CM-4688, 48 h
Aspergillus foetidus [9] = assay: Antifungal activity against Aspergillus foetidus isolate CM-4995 obtained from prosthesis after 48 hrs by EUCAST broth dilution method; conditions: isolate CM-4995, 48 h
Aspergillus niger [10] = assay: Antifungal activity against Aspergillus niger isolate CM-4316 obtained from respiratory tract infection of patient after 48 hrs by EUCAST broth dilution method; conditions: isolate CM-4316, 48 h
Aspergillus foetidus [11] = assay: Antifungal activity against Aspergillus foetidus isolate CM-5264 obtained from respiratory tract infection of patient after 48 hrs by EUCAST broth dilution method; conditions: isolate CM-5264, 48 h
Aspergillus niger [12] = assay: Antifungal activity against Aspergillus niger isolate CM-4262 after 48 hrs by EUCAST broth dilution method Ophthalmic; conditions: isolate CM-4262, 48 h
Aspergillus tubingensis [13] = assay: Antifungal activity against Aspergillus tubingensis isolate CM-4003 after 48 hrs by EUCAST broth dilution method; conditions: isolate CM-4003, 48 h
Aspergillus tubingensis [14] = assay: Antifungal activity against Aspergillus tubingensis isolate CM-4005 after 48 hrs by EUCAST broth dilution method; conditions: isolate CM-4005, 48 h
Aspergillus tubingensis [15] = assay: Antifungal activity against Aspergillus tubingensis isolate CM-3507 obtained from respiratory tract infection of patient after 48 hrs by EUCAST broth dilution method; conditions: isolate CM-3507, 48 h
Aspergillus niger [16] = assay: Antifungal activity against Aspergillus niger isolate CM-4004 obtained from after 48 hrs by EUCAST broth dilution method; conditions: isolate CM-4004, 48 h
Aspergillus tubingensis [17] = assay: Antifungal activity against Aspergillus tubingensis isolate CM-4897 obtained from blood culture after 48 hrs by EUCAST broth dilution method; conditions: isolate CM-4897, 48 h
Aspergillus niger [18] = assay: Antifungal activity against Aspergillus niger isolate CM-3586 obtained from catheter of patient after 48 hrs by EUCAST broth dilution method; conditions: isolate CM-3586, 48 h
Aspergillus niger [19] = assay: Antifungal activity against Aspergillus niger isolate CM-3641 obtained from respiratory tract infection of patient after 48 hrs by EUCAST broth dilution method; conditions: isolate CM-3641, 48 h
Aspergillus tubingensis [20] = assay: Antifungal activity against Aspergillus tubingensis isolate CM-4899 obtained from respiratory tract infection of patient after 48 hrs by EUCAST broth dilution method; conditions: isolate CM-4899, 48 h
Aspergillus niger [21] = assay: Antifungal activity against Aspergillus niger isolate CM-3257 obtained from respiratory tract infection of patient after 48 hrs by EUCAST broth dilution method; conditions: isolate CM-3257, 48 h
Aspergillus tubingensis [22] = assay: Antifungal activity against Aspergillus tubingensis isolate CM-5094 obtained from respiratory tract infection of patient after 48 hrs by EUCAST broth dilution method; conditions: isolate CM-5094, 48 h
Aspergillus niger [23] = assay: Antifungal activity against Aspergillus niger isolate CM-4213 obtained from respiratory tract infection of patient after 48 hrs by EUCAST broth dilution method; conditions: isolate CM-4213, 48 h
Aspergillus niger [24] = assay: Antifungal activity against Aspergillus niger isolate CM-3551 obtained from respiratory tract infection of patient after 48 hrs by EUCAST broth dilution method; conditions: isolate CM-3551, 48 h
Aspergillus niger [25] = assay: Antifungal activity against Aspergillus niger isolate CM-3506 obtained from respiratory tract infection of patient after 48 hrs by EUCAST broth dilution method; conditions: isolate CM-3506, 48 h
Aspergillus tubingensis [26] = assay: Antifungal activity against Aspergillus tubingensis isolate CM-3177 obtained from respiratory tract infection of patient after 48 hrs by EUCAST broth dilution method; conditions: isolate CM-3177, 48 h
Aspergillus tubingensis [27] = assay: Antifungal activity against Aspergillus tubingensis isolate CM-4000 after 48 hrs by EUCAST broth dilution method; conditions: isolate CM-4000, 48 h
Aspergillus tubingensis [28] = assay: Antifungal activity against Aspergillus tubingensis isolate CM-4264 obtained from blood culture after 48 hrs by EUCAST broth dilution method; conditions: isolate CM-4264, 48 h
Aspergillus tubingensis [29] = assay: Antifungal activity against Aspergillus tubingensis isolate CM-4352 obtained from respiratory tract infection of patient after 48 hrs by EUCAST broth dilution method; conditions: isolate CM-4352, 48 h
Aspergillus tubingensis [30] = assay: Antifungal activity against Aspergillus tubingensis isolate CM-4296 obtained from respiratory tract infection of patient after 48 hrs by EUCAST broth dilution method; conditions: isolate CM-4296, 48 h
Aspergillus niger [31] = assay: Antifungal activity against Aspergillus niger isolate CM-3236 obtained from respiratory tract infection of patient after 48 hrs by EUCAST broth dilution method; conditions: isolate CM-3236, 48 h
Aspergillus niger [32] = assay: Antifungal activity against Aspergillus niger isolate CM-5095 obtained from respiratory tract infection of patient after 48 hrs by EUCAST broth dilution method; conditions: isolate CM-5095, 48 h
Aspergillus niger [33] = assay: Antifungal activity against Aspergillus niger isolate CM-3672 obtained from cutaneous layer of patient after 48 hrs by EUCAST broth dilution method; conditions: isolate CM-3672, 48 h
Aspergillus tubingensis [34] = assay: Antifungal activity against Aspergillus tubingensis isolate CM-3585 after 48 hrs by EUCAST broth dilution method; conditions: isolate CM-3585, 48 h

C[C@@H](c1ncncc1F)[C@](O)(Cn1cncn1)c1ccc(F)cc1F [VORICONAZOLE] was tested, and the MIC (Aspergillus niger [1]) was 0.5 µg/mL (≈ 1.43 µM), the MIC (Aspergillus tubingensis [2]) was 2 µg/mL (≈ 5.73 µM) and the MIC (Aspergillus tubingensis [3]) was 1.67 µg/mL (≈ 4.78 µM). The MIC (Aspergillus foetidus [4]) was 2 µg/mL (≈ 5.73 µM), the MIC (Aspergillus tubingensis [5]) was 1.75 µg/mL (≈ 5.01 µM) and the MIC (Aspergillus tubingensis [6]) was 1 µg/mL (≈ 2.86 µM). For the same molecule, the MIC (Aspergillus tubingensis [7]) was 2 µg/mL (≈ 5.73 µM), the MIC (Aspergillus tubingensis [8]) was 2 µg/mL (≈ 5.73 µM) and the MIC (Aspergillus foetidus [9]) was 2 µg/mL (≈ 5.73 µM). For the same molecule, the MIC (Aspergillus niger [10]) was 0.5 µg/mL (≈ 1.43 µM), the MIC (Aspergillus foetidus [11]) was 2 µg/mL (≈ 5.73 µM) and the MIC (Aspergillus niger [12]) was 2 µg/mL (≈ 5.73 µM). For the same molecule, the MIC (Aspergillus tubingensis [13]) was 2 µg/mL (≈ 5.73 µM), the MIC (Aspergillus tubingensis [14]) was 2 µg/mL (≈ 5.73 µM) and the MIC (Aspergillus tubingensis [15]) was 1 µg/mL (≈ 2.86 µM). The MIC (Aspergillus niger [16]) was 1 µg/mL (≈ 2.86 µM), the MIC (Aspergillus tubingensis [17]) was 2 µg/mL (≈ 5.73 µM) and the MIC (Aspergillus niger [18]) was 1 µg/mL (≈ 2.86 µM). For the same molecule, the MIC (Aspergillus niger [19]) was 1 µg/mL (≈ 2.86 µM), the MIC (Aspergillus tubingensis [20]) was 2 µg/mL (≈ 5.73 µM) and the MIC (Aspergillus niger [21]) was 1 µg/mL (≈ 2.86 µM). The MIC (Aspergillus tubingensis [22]) was 0.75 µg/mL (≈ 2.15 µM), the MIC (Aspergillus niger [23]) was 0.33 µg/mL (≈ 0.945 µM) and the MIC (Aspergillus niger [24]) was 1 µg/mL (≈ 2.86 µM). For the same molecule, the MIC (Aspergillus niger [25]) was 0.75 µg/mL (≈ 2.15 µM), the MIC (Aspergillus tubingensis [26]) was 2 µg/mL (≈ 5.73 µM) and the MIC (Aspergillus tubingensis [27]) was 2 µg/mL (≈ 5.73 µM). It also gave an MIC (Aspergillus tubingensis [28]) of 1 µg/mL (≈ 2.86 µM), an MIC (Aspergillus tubingensis [29]) of 0.88 µg/mL (≈ 2.52 µM) and an MIC (Aspergillus tubingensis [30]) of 1 µg/mL (≈ 2.86 µM). The MIC (Aspergillus niger [31]) was 0.5 µg/mL (≈ 1.43 µM), the MIC (Aspergillus niger [32]) was 0.75 µg/mL (≈ 2.15 µM) and the MIC (Aspergillus niger [33]) was 1 µg/mL (≈ 2.86 µM). For the same molecule, the MIC (Aspergillus tubingensis [34]) was 1 µg/mL (≈ 2.86 µM).
With C[C@@H]1[C@H](O)[C@@H](C)/C=C/C=C/C=C/C=C/C=C/C=C/C=C/[C@H](O[C@@H]2O[C@H](C)[C@@H](O)[C@H](N)[C@@H]2O)C[C@@H]2O[C@](O)(C[C@@H](O)C[C@@H](O)[C@H](O)CC[C@@H](O)C[C@@H](O)CC(=O)O[C@H]1C)C[C@H](O)[C@H]2C(=O)O [AMPHOTERICIN B] the MIC (Aspergillus niger [1]) was 0.25 µg/mL (≈ 0.271 µM), the MIC (Aspergillus tubingensis [2]) was 0.19 µg/mL (≈ 0.206 µM) and the MIC (Aspergillus tubingensis [3]) was 0.25 µg/mL (≈ 0.271 µM). It also gave an MIC (Aspergillus foetidus [4]) of 0.25 µg/mL (≈ 0.271 µM), an MIC (Aspergillus tubingensis [5]) of 0.19 µg/mL (≈ 0.206 µM) and an MIC (Aspergillus tubingensis [6]) of 0.12 µg/mL (≈ 0.13 µM). It also gave an MIC (Aspergillus tubingensis [7]) of 0.25 µg/mL (≈ 0.271 µM), an MIC (Aspergillus tubingensis [8]) of 0.21 µg/mL (≈ 0.227 µM) and an MIC (Aspergillus foetidus [9]) of 0.21 µg/mL (≈ 0.227 µM). The MIC (Aspergillus niger [10]) was 0.19 µg/mL (≈ 0.206 µM), the MIC (Aspergillus foetidus [11]) was 0.12 µg/mL (≈ 0.13 µM) and the MIC (Aspergillus niger [12]) was 0.25 µg/mL (≈ 0.271 µM). It also gave an MIC (Aspergillus tubingensis [13]) of 0.12 µg/mL (≈ 0.13 µM), an MIC (Aspergillus tubingensis [14]) of 0.12 µg/mL (≈ 0.13 µM) and an MIC (Aspergillus tubingensis [15]) of 0.19 µg/mL (≈ 0.206 µM). It also gave an MIC (Aspergillus niger [16]) of 0.25 µg/mL (≈ 0.271 µM), an MIC (Aspergillus tubingensis [17]) of 0.16 µg/mL (≈ 0.173 µM) and an MIC (Aspergillus niger [18]) of 0.25 µg/mL (≈ 0.271 µM). The MIC (Aspergillus niger [19]) was 0.25 µg/mL (≈ 0.271 µM), the MIC (Aspergillus tubingensis [20]) was 0.16 µg/mL (≈ 0.173 µM) and the MIC (Aspergillus niger [21]) was 0.25 µg/mL (≈ 0.271 µM). For the same molecule, the MIC (Aspergillus tubingensis [22]) was 0.12 µg/mL (≈ 0.13 µM), the MIC (Aspergillus niger [23]) was 0.33 µg/mL (≈ 0.357 µM) and the MIC (Aspergillus niger [24]) was 0.5 µg/mL (≈ 0.541 µM). It also gave an MIC (Aspergillus niger [25]) of 0.19 µg/mL (≈ 0.206 µM), an MIC (Aspergillus tubingensis [26]) of 0.16 µg/mL (≈ 0.173 µM) and an MIC (Aspergillus tubingensis [27]) of 0.16 µg/mL (≈ 0.173 µM). It also gave an MIC (Aspergillus tubingensis [28]) of 0.12 µg/mL (≈ 0.13 µM), an MIC (Aspergillus tubingensis [29]) of 0.28 µg/mL (≈ 0.303 µM) and an MIC (Aspergillus tubingensis [30]) of 0.12 µg/mL (≈ 0.13 µM). For the same molecule, the MIC (Aspergillus niger [31]) was 0.19 µg/mL (≈ 0.206 µM), the MIC (Aspergillus niger [32]) was 0.19 µg/mL (≈ 0.206 µM) and the MIC (Aspergillus niger [33]) was 0.12 µg/mL (≈ 0.13 µM). It also gave an MIC (Aspergillus tubingensis [34]) of 0.19 µg/mL (≈ 0.206 µM).

Source: ChEMBL document CHEMBL1649226, “Species identification and antifungal susceptibility patterns of species belonging to Aspergillus section Nigri” (2009)
